This test has as its system A204. In words: relative viability vs DMSO control (72 h) (fraction); higher = more viable cells. In a few lines:
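Plates held 72 h at 37 °C and 5% CO2 contained sarcoma cell lines seeded in 384-well format to reach 80–90% confluence, plus 2.5 µl of serially diluted compound added after 24 h. Source plate concentrations ran from 10 mM to 0.0002 mM, with 0.1% DMSO as vehicle and a 5 µM positive control. Percent growth from ATPLite readings, averaged over up to triplicate wells, gave relative viability. Values were rescaled with 1 as full and 0 as none.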

The values that follow come from the supplement of paper PMC10883282.

± gives the standard deviation of the averaged measurements.

In the case of `C=CC(=O)Nc1cccc(Oc2nc(Nc3ccc(N4CCN(C)CC4)cc3)nc3ccsc23)c1` [Olmutinib], the relative viability by setting is: (0.00017 µM) 1.09 ± 0.028; (0.00051 µM) 1.05 ± 0.038; (0.00152 µM) 1.06 ± 0.019; (0.00457 µM) 1.06 ± 0.039; (0.01372 µM) 1.05 ± 0.031; (0.04115 µM) 1.05 ± 0.02. Besides, the relative viability was 1.01 ± 0.03 (0.1235 µM); 1.03 ± 0.022 (0.3704 µM); 0.929 ± 0.054 (1.111 µM); 0.568 ± 0.064 (3.333 µM); 0.177 ± 0.031 (10 µM).

With `CNC(=O)c1cc(Oc2ccc(NC(=O)Nc3ccc(Cl)c(C(F)(F)F)c3)c(F)c2)ccn1` [Regorafenib], the relative viability runs as follows: (0.00017 µM) 1.06 ± 0.046; (0.00051 µM) 1.07 ± 0.05; (0.00152 µM) 1.05 ± 0.067; (0.00457 µM) 1.08 ± 0.051; (0.01372 µM) 1.079 ± 0.0072; (0.04115 µM) 1.05 ± 0.032. Moreover, the relative viability runs as follows: (0.1235 µM) 0.987 ± 0.06; (0.3704 µM) 0.589 ± 0.033; (1.111 µM) 0.434 ± 0.0088; (3.333 µM) 0.305 ± 0.033; (10 µM) 0.219 ± 0.0053.

Turning to `COc1cc2c(cc1O)CCN[C@]21CS[C@@H]2c3c(OC(C)=O)c(C)c4c(c3[C@H](COC1=O)N1[C@@H]2[C@H]2c3c(cc(C)c(OC)c3O)C[C@@H]([C@@H]1O)N2C)OCO4` [Trabectedin], the relative viability (2 pM) is 1.08 ± 0.026; the relative viability (5 pM) was 1.06 ± 0.03; the relative viability (15 pM) stood at 1.05 ± 0.056; the relative viability (50 pM) stood at 0.979 ± 0.02; the relative viability (0.00014 µM) was determined as 0.84 ± 0.031; the relative viability (0.00041 µM) was found to be 0.399 ± 0.17. For the same compound, the relative viability was 0.156 ± 0.13 (0.0012 µM); 0.215 ± 0.0065 (0.0037 µM); 0.202 ± 0.014 (0.011 µM); 1.07 ± 0.03 (200 fM); 1.1 ± 0.043 (600 fM).
